Laboratory results published in publication PMC11466185, “Mechanisms and efficacy of small molecule latency-promoting agents to inhibit HIV reactivation ex vivo” (JCI Insight, 2024).
“And” between values parts separate entries of the source, which are not always exact repeats. Identical values can stand only once.

Columns and labels:
PBMCs [1] = test: Cell viability by trypan blue staining after 24 hours; assay type: cell-based, human
Method in brief: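 PBMCs from ART-suppressed donors at 6 × 10^6 cells/well were activated with CD3/28 beads and cultured with antiretrovirals plus drug in DMSO. Viability counted by trypan blue after 24 hours. Values were normalized to the activated DMSO control.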

[2] = test system: HIV transcripts (TAR, LLTR, Pol, PolyA, TatRev); test: Latency reversal assay: cell-associated HIV transcripts (RT-ddPCR) 24 hours after anti-CD3/CD28 activation of PBMCs from ART-suppressed PWH; assay type: cell-based; parameters: key to TatRev: % of activated DMSO control, normalized to 1 μg total RNA; Elongated (LLTR) HIV transcripts, median relative to activated DMSO, initial screening / Midtranscribed (Pol) HIV transcripts, median relative to activated DMSO, initial screening / Multiply spliced (TatRev) HIV transcripts, median relative to activated DMSO, initial screening: concentration or dose not given beside the values; details: for Pol HIV transcripts (DMSO αCD3/28 = 100) / PolyA HIV transcripts (DMSO αCD3/28 = 100) / TatRev HIV transcripts (DMSO αCD3/28 = 100): αCD3/28-activated, ruxolitinib 4μM, triptolide 25-50nM, alvocidib 40nM, dinaciclib 8nM, AZD4573 8nM, quercetin 5μM, pladienolide B 10nM, isoginkgetin 25μM, herboxidiene 5nM, KRIBB11 2.5μM, tanespimycin 5μM, mithramycin A 25nM; for PolyA / TatRev: DMSO+αCD3/28 = 100, Fig 3A; for LLTR/TAR / PolyA/LLTR / TatRev/PolyA: DMSO+CD3/28 = 1, Fig 3B, C and D
Method in brief: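 PBMCs from ART-suppressed people with HIV (6 × 10^6 cells/well) treated with drug in DMSO, activated with anti-CD3/CD28 beads with antiretrovirals, harvested after 24 hours. TAR, LLTR, Pol, PolyA and TatRev transcripts measured by RT-ddPCR, normalized to 1 μg total RNA, expressed as % of activated DMSO control.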

PBMCs [3] = assay type: cell-based, human; details: 5nM; 6 days after αCD3/28 activation; each row one participant
Experimental: Next, we evaluated the ability of the candidate LPAs to sustain the inhibitory effects during a prolonged ex vivo culture. To this end, PBMCs were cultured in the presence of individual drugs in DMSO or in DMSO alone as control, activated (anti-CD3/CD28), and harvested after 6 days. […] However, we decided to test the drug on day 6 because extra cells were available from some study participants.
For quantification of cell-associated HIV transcripts, PBMCs were harvested either after 24 hours or after 6 days. The cell viabilities were measured by trypan blue staining; then the cells were pelleted by centrifuging at 300g for 6 minutes and stored at –80°C. For quantification of virion-associated HIV RNA, cell culture supernatant was collected from 6 × 10^6 PBMCs that were treated and activated for 6 days as described above. Residual cells and cellular debris were subsequently removed from the supernatant by differential centrifugation (300g for 6 minutes, then 20,000g for 10 minutes), and the supernatant was stored at –80°C.
A) After six days, the viability was measured by trypan blue staining and then normalized to the levels of the activated DMSO (% of activated DMSO). Bars indicate medians and different colors indicate individual study participants. B-F) Each drug was tested in PBMCs from at least six ART-suppressed study participants (except for KRIBB11, n=5) and the PBMCs were aliquoted into wells at 6x10^6 cells/well. After activation, the cells were cultured with antiretrovirals in the presence of individual drugs in DMSO or DMSO alone as control. After six days, total RNA was extracted and the progression through different stages of HIV transcription was (1 picture or pasted object on this page, not shown here)

[4] = 5nM, 24 h after αCD3/28 activation, each column one participant

## CO[C@H]([C@@H](C)[C@H]1O[C@]1(C)C[C@H](C)/C=C/C=C(\C)[C@H]1O[C@@H](CC(=O)O)CC[C@@H]1C)[C@@H](C)O [herboxidiene]
PBMCs [1]; study participant 150a
  Viability (Fig 1A): 99.57 % of activated DMSO
PBMCs [1]; study participant 2147b
  Viability (Fig 1A): 98.97 % of activated DMSO
[2]; [4]
  LLTR HIV transcripts (DMSO+αCD3/28 = 100): 81.19 and 43.81 and 65.61 and 39.82 and 46.55 and 19.9 and 41.59
  Pol HIV transcripts (DMSO+αCD3/28 = 100): 51.16 and 73 and 22.91 and 16.22 and 3.35 and 168.38
  TAR HIV transcripts (DMSO+αCD3/28 = 100): 84.02 and 77.63 and 124.48 and 122.07 and 106.99 and 116.67
  TatRev HIV transcripts (DMSO+αCD3/28 = 100): 33.33 and 25.2 and 10.9 and 51.8 and 0 (2×)
[2]; 24 hours, compared with activated DMSO, Figure 3B
  HIV transcriptional elongation, ratio LLTR/TAR: Significant reductions
[2]; initial screening, 2 participants, 24 hours
  Reduction of multiply spliced or completed HIV transcripts in drug screen (selection as candidate LPA): more than 50%
[2]; initial screening, 2 participants, 24 hours, Figure 1B, Supplemental Figure 2
  Multiply spliced (TatRev) HIV transcripts, median relative to activated DMSO, initial screening: 23%
[2]; participant 150b
  Pol HIV transcripts (DMSO αCD3/28 = 100): 43.29
  PolyA HIV transcripts (DMSO αCD3/28 = 100): 23.53
  TatRev HIV transcripts (DMSO αCD3/28 = 100): 2.69
[2]; participant 1379
  Pol HIV transcripts (DMSO αCD3/28 = 100): 47.94
  PolyA HIV transcripts (DMSO αCD3/28 = 100): 28.08
  TatRev HIV transcripts (DMSO αCD3/28 = 100): 171.43
[2]; participant 2027
  Pol HIV transcripts (DMSO αCD3/28 = 100): 133.33
  PolyA HIV transcripts (DMSO αCD3/28 = 100): 36.92
  TatRev HIV transcripts (DMSO αCD3/28 = 100): 0
[2]; participant 2147a
  Pol HIV transcripts (DMSO αCD3/28 = 100): 105.88
  PolyA HIV transcripts (DMSO αCD3/28 = 100): 21.76
  TatRev HIV transcripts (DMSO αCD3/28 = 100): 28.42
[2]; participant 2161
  Pol HIV transcripts (DMSO αCD3/28 = 100): 169.45
  PolyA HIV transcripts (DMSO αCD3/28 = 100): 268.67
  TatRev HIV transcripts (DMSO αCD3/28 = 100): 176.87
[2]; participant 2256
  Pol HIV transcripts (DMSO αCD3/28 = 100): 18.46
  PolyA HIV transcripts (DMSO αCD3/28 = 100): 16.27
  TatRev HIV transcripts (DMSO αCD3/28 = 100): 1.4
[2]; participant 2461
  PolyA HIV transcripts (DMSO αCD3/28 = 100): 1692.31
[2]; participant 5557
  Pol HIV transcripts (DMSO αCD3/28 = 100): 23.16
  PolyA HIV transcripts (DMSO αCD3/28 = 100): 23.33
  TatRev HIV transcripts (DMSO αCD3/28 = 100): 0
[2]; study participant 150a, 24 hours
  Multiply spliced HIV transcripts (TatRev) (Fig 1B): 33.33 % of activated DMSO
[2]; study participant 150a
  PolyA: 73.21
  TatRev: 33.33
[2]; study participant 1379
  LLTR/TAR: 0.186
  PolyA/LLTR: 0.4248
  TatRev/PolyA: 0
  PolyA: 8.45
  TatRev: 0
[2]; study participant 2027
  LLTR/TAR: 0.85
  PolyA/LLTR: 0.67
  PolyA: 43.76
[2]; study participant 2147b, 24 hours
  Multiply spliced HIV transcripts (TatRev) (Fig 1B): 12.13 % of activated DMSO
[2]; study participant 2147b
  LLTR/TAR: 0.2964
  PolyA/LLTR: 0.9546
  TatRev/PolyA: 0.3499
  PolyA: 22.4
  TatRev: 10.9
[2]; study participant 2256
  LLTR/TAR: 0.3813
  PolyA/LLTR: 0.9973
  TatRev/PolyA: 1.116
  PolyA: 46.43
  TatRev: 51.8
[2]; study participant 2750
  LLTR/TAR: 0.5214
  PolyA/LLTR: 1.543
  TatRev/PolyA: 0.3728
  PolyA: 67.59
  TatRev: 25.2
[2]; study participant 5557
  LLTR/TAR: 0.3565
  PolyA/LLTR: 0.117
  TatRev/PolyA: 0
  PolyA: 4.86
  TatRev: 0
PBMCs [3]
  Cell viability (DMSO αCD3/28 = 100): 119.6 and 123.7 and 95.53 and 100.64 and 118.06 and 114.9 and 85 and 106.6 and 119.5
